The test system of one series is E. faecalis. Nature of the series: MBEC, biofilm eradication, E. faecalis. It is filed as cell-based, Enterococcus faecalis. Conditions: 24 hours, 37 °C, TSB. The method, then: A regrowth assay was used to establish the MBEC of a compound to evaluate the antibiofilm activity.
Biofilm eradication experiments were performed using a pegged-lid microtiter plate assay to determine the MBEC values for compounds of interest, as previously described. […] Sci. Rep. 2017, 7, 2003; and Raval, Y. S., Flurin, L., Mohamed, A., Greenwood-Quaintance, K. E., Beyenal, H., & Patel, R. In Vitro Activity of Hydrogen Peroxide and Hypochlorous Acid Generated by Electrochemical Scaffolds Against Planktonic and Biofilm Bacteria. Antimicrob Agents Chemother. 2021, 65, e01966-20. Briefly, […] of mid-log phase culture diluted to ca. 10^6 CFU/mL in tryptic soy broth (TSB) was added to wells of plat-bottom 96-well plates (Thermo Scientific, 266120) and covered with 96-pegged lid (Thermo Scientific, 445497). Plates were incubated to establish bacterial biofilms after incubation at 37 °C for 24 hours. The pegged lid was then removed, washed with PBS, and transferred to another 96-well plate containing 2-fold serial dilutions of the test compounds (the “challenge plate”). The total volume in each well was […], comprising of […] of compound diluted in water/DMSO, with a starting DMSO concentration of 2.5%, and […] of TSB. Plates were incubated statically at 37 °C for 24 hours. Next, the pegged lids were transferred to a fresh 96-well plate containing […] of TSB and incubated overnight at 37 °C. MBEC values were determined as the lowest test concentration that resulted eradicated biofilm (i.e., wells displaying no turbidity in the final plate).

The test system of another series is red blood cells. Nature of the series: Red Blood Cell (RBC) Lysis Assay (lysis20). It is filed as cell-based, sheep. The conditions noted are these: concentration inducing 20% RBC lysis; sheep blood, 1 hour, 37 °C. The protocol:
RBC lysis assays were performed on mechanically defibrinated sheep blood (Hemostat Labs: DSB030). An aliquot of 1.5 mL blood was placed into a microcentrifuge tube and centrifuged at 3,800 rpm for ten minutes. The supernatant was removed, and the cells were resuspended with 1 mL of phosphate-buffered saline (PBS). The suspension was centrifuged as described above, the supernatant was removed, and cells were resuspended 4 additional times in 1 mL PBS. The final cell suspension was diluted twentyfold with PBS. Compounds were serially diluted with PBS two-fold from stock solutions (1.0 mM) to yield 100 μL of twelve test concentrations on a flat-bottom 96-well plate (Corning, 351172), wherein the starting concentration of DMSO was 2.5%. To each of the wells, 100 μL of the twentyfold suspension dilution was then inoculated. TritonX (1% by volume) served as a positive control (100% lysis marker) and sterile PBS served as a negative control (0% lysis marker). Samples were then placed in an incubator at 37 °C and shaken at 200 rpm. After 1 hour, the samples were centrifuged at 3,800 rpm for ten minutes. The absorbance of the supernatant was measured with a UV spectrometer at a 540 nm wavelength. The concentration inducing 20% RBC lysis was then calculated for each compound based upon the absorbances of the TritonX and PBS controls. Aqueous DMSO controls were conducted as appropriate for each compound.
The potential cytotoxicity of the compounds was also considered with the evaluation of hemolysis (lysis20) assays with 20% lysis of red blood cells serving as an indicator of potentially toxic compounds. Finally, the bioactivity of these compounds were benchmarked against a commercial benzalkonium chloride source (BAC; 70% benzyldimethyldodecylammonium chloride, and 30% benzyldimethyltetradecylammonium chloride) as well as some previously reported disinfectant compounds from the inventors' groups; included were bisQPC ^PhP6P-10,10 as well as ^PhP2P-10,10 and 12(2)12. A detailed description of the experimental procedures used to evaluate bioactivity and hemolysis assays are described above.

In another series the test system is HA-MRSA (ATCC 33591). Nature of the series: MIC against hospital-acquired methicillin-resistant S. aureus (HA-MRSA). The format is cell-based. The conditions noted are these: Staphylococcus aureus, 72 h. The method, then: The term “minimum inhibitory concentration (MIC)” means the lowest concentration of an antimicrobial agent that will inhibit the visible growth of a microorganism after overnight incubation. MIC values against bacteria, for example, the Gram-positive Staphylococcus aureus and Enterococcus faecalis and the Gram-negative Escherichia coli and Pseudomonas aeruginosa were determined by standard methods. See also P. A. Wayne, Methods for Dilution Antimicrobial Tests for Bacteria that Grow Aerobically; Approved Standard, Ninth Edition, 2012, CLSI Document M07-A9, Vol. 32 No. 2.
Biological testing procedures were adapted from prior work by Melander and coworkers. For all biological assays, laboratory strains of methicillin-susceptible Staphylococcus aureus MSSA (SH1000), Staphylococcus aureus CA-MRSA (USA300-0114), Staphylococcus aureus HA-MRSA (ATCC 33591), Escherichia coli (MC4100), Enterococcus faecalis (OG1RF), Acinetobacter baumannii (ATCC 17978), were grown with shaking at 37 °C overnight from freezer stocks in 5 mL of the indicated media: SH1000, OG1RF, MC4100, USA300-0114, and ATCC 17978 were grown in BDTM Mueller-Hinton broth (MHB), whereas ATCC 33591 was grown in BDTM tryptic soy broth (TSB). The inoculum were then streaked onto Mueller-Hinton agar (MHA) plates and grown overnight at 37 °C. From the plates, single colonies were selected, diluted into 50 mL of fresh media and grown overnight at 37 °C with shaking for use in the MIC assays. Optical density (OD) measurements were obtained using a SpectraMax iD3 plate reader (Molecular Devices, United States).
Compounds were serially diluted two-fold from stock solutions (1.0 mM) to yield twelve 100 μL test concentrations, wherein the starting concentration of dimethyl sulfoxide (DMSO) was 2.5%. Overnight S. aureus, E. faecalis, E. coli, A. baumannii, USA300-0114 (CA-MRSA), and ATCC 33591 (HA-MRSA) cultures were diluted to ca. 10^6 CFU/mL in MHB or TSB and regrown to mid-exponential phase, as determined by optical density recorded at 600 nm (OD600). All cultures were then diluted again to ca. 10^6 CFU/mL and 100 μL were inoculated into each well of a U-bottom 96-well plate (Corning, 351177) containing 100 μL of compound solution. Plates were incubated statically at 37 °C for 72 hours upon which wells were evaluated visually for bacterial growth. The MIC was determined as the lowest concentration of compound resulting in no bacterial growth visible to the naked eye, based on the highest value in three independent experiments. Aqueous DMSO controls were conducted as appropriate for each compound.
The prepared library of biscationic amphiphilic compounds was assessed for performance as antibacterial disinfectants by determining the minimum inhibitory concentration (MIC) for each against a panel of bacteria. The bacteria selected for the study were chosen to evaluate the broad spectrum antimicrobial performance of the QPCs, and therefore, included both Gram-positive and Gram-negative bacterial strains, including those with known antimicrobial resistance mechanisms. These bacteria include the Gram-positive strains of methicillin-susceptible Staphylococcus aureus [MSSA; SH1000], community-acquired methicillin-resistant Staphylococcus aureus [CA-MRSA; USA 300-0114], hospital-acquired methicillin-resistant Staphylococcus aureus [HA-MRSA; ATCC 33591] and the […], Escherichia coli [MC4100], Acinetobacter baumannii [ATCC 17498] and Pseudomonas aeruginosa [PAO1].

Consider `CCCCCCCCCCCC[N+](C)(C)CC[N+](C)(C)CCCCCCCCCCCC` [12(2)12, reference compound], for which, in the series on E. faecalis, the MBEC is 8 µM. In the series on red blood cells, the Lysis20 was 16 µM. Besides, the minimal inhibitory concentration (MIC) with HA-MRSA (ATCC 33591) was found to be 1 µM.

In turn, `CCCCCCCCCCCC[P+](C)(C)CC[P+](C)(C)CCCCCCCCCCC` [^MeP2P-12,12] returned an MBEC with E. faecalis of 8 µM. This molecule also returned a Lysis20 with red blood cells of 8 µM. In addition, the minimum inhibitory concentration (MIC) with HA-MRSA (ATCC 33591) amounted to 1 µM.

As usually defined, the MIC is the smallest concentration in the dilution series that meets the test's criterion for growth inhibition. The low end stands for greater potency, the high end for weaker potency.

Values taken from patent US20260374792A1, “PHENYL-FREE BISCATIONIC QUATERNARY PHOSPHONIUM COMPOUNDS AS ANTIMICROBIAL AGENTS” (priority 2022, published 2026).
